Experimental data: US20090156517A1, “STABLE PHARMACEUTICAL COMPOSITIONS OF AMINOGLYCOSIDE ANTIBIOTICS, ION-CHELATING AGENTS, AND BUFFERS” (priority 2006, published 2009)
Entries after “also recorded” stand apart in the source; their conditions may differ. Each block holds one compound with its values, some of them ahead of it.

Experiments:
[1] = HIAC light obscuration test (USP 788), aggregate particle content; format: physicochemical; conditions: composition prepared as a liquid solution
Procedure: Light obscuration testing was performed for solution preparations prepared with some of the compositions described in the examples according to the method described in the United States Pharmacopeia (USP 788) using HIAC-3000 light obscuration detector. Particle content is denoted by the number of particles per milliliter of solution. The value is an average of two measurements. Samples were tested at 1 hour and at 20 hours.

[2] = Amounts of antibiotic components in the solution over time (reverse-phase LC/UV for β-lactams and β-lactamase inhibitors, HPLC/evaporation-light-scattering for aminoglycosides); format: physicochemical
Procedure: The amounts of β-lactam antibiotics and β-lactamase inhibitor were determined using C18 reverse-phase LC and UV-VIS detector (Tianjin […] Co., Ltd., analysis method No. HM-K-03). The content of aminoglycoside antibiotics was measured using reverse-phase HPLC and evaporation-light-scattering detector (Tianjin […] Co., Ltd., analysis method No. HM-K-08). […] The relative amount of each antibiotic component in the composition at each time point was expressed as peak area ratio with respect to the corresponding peak area of an external standard.

[3] = Example 10: piperacillin sodium/sulbactam sodium solution cryopreserved 7 days, thawed, pH 6.0, etimicin sulfate added, no EDTA, 0 h
[4] = Example 10: piperacillin sodium/sulbactam sodium solution cryopreserved 7 days, thawed, pH 6.0, etimicin sulfate added, no EDTA, 1 h
[5] = Example 10: piperacillin sodium/sulbactam sodium solution cryopreserved 7 days, thawed, pH 6.0, etimicin sulfate added, no EDTA, 2 h
[6] = Example 10: piperacillin sodium/sulbactam sodium solution cryopreserved 7 days, thawed, pH 6.0, etimicin sulfate added, no EDTA, 4 h
[7] = Example 10: piperacillin sodium/sulbactam sodium solution cryopreserved 7 days, thawed, pH 6.0, etimicin sulfate added, no EDTA, 6 h
[8] = Example 10: piperacillin sodium/sulbactam sodium solution cryopreserved 7 days, thawed, pH 6.0, etimicin sulfate added, no EDTA, 8 h
[9] = Example 5 solution (cefoperazone sodium, sulbactam sodium, gentamicin, disodium EDTA, sodium citrate pH 6.75), room temperature, 0 h
[10] = Example 5 solution (cefoperazone sodium, sulbactam sodium, gentamicin, disodium EDTA, sodium citrate pH 6.75), room temperature, 1 h
[11] = Example 5 solution (cefoperazone sodium, sulbactam sodium, gentamicin, disodium EDTA, sodium citrate pH 6.75), room temperature, 2 h
[12] = Example 5 solution (cefoperazone sodium, sulbactam sodium, gentamicin, disodium EDTA, sodium citrate pH 6.75), room temperature, 4 h

- Amount of component, percentage of amount at initial time [2, 3]: 101.8%
- Amount of component, percentage of amount at initial time [2, 4]: 101.3%
- Amount of component, percentage of amount at initial time [2, 5]: 101.8%
- Amount of component, percentage of amount at initial time [2, 6]: 101.2%
- Amount of component, percentage of amount at initial time [2, 7]: 98.3%
- Amount of component, percentage of amount at initial time [2, 8]: 95.1%
- Amount of component, percentage of amount at initial time ([2]; Example 11: solution of Example 10 freeze-dried, stored 7 days at 0° C., redissolved, pH 6.0, etimicin sulfate and disodium EDTA added, 0 h): 101.8%
- Amount of component, percentage of amount at initial time ([2]; Example 11: solution of Example 10 freeze-dried, stored 7 days at 0° C., redissolved, pH 6.0, etimicin sulfate and disodium EDTA added, 1 h): 101.3%
- Amount of component, percentage of amount at initial time ([2]; Example 11: solution of Example 10 freeze-dried, stored 7 days at 0° C., redissolved, pH 6.0, etimicin sulfate and disodium EDTA added, 2 h): 101.8%
- Amount of component, percentage of amount at initial time ([2]; Example 11: solution of Example 10 freeze-dried, stored 7 days at 0° C., redissolved, pH 6.0, etimicin sulfate and disodium EDTA added, 4 h): 101.2%
- Amount of component, percentage of amount at initial time ([2]; Example 11: solution of Example 10 freeze-dried, stored 7 days at 0° C., redissolved, pH 6.0, etimicin sulfate and disodium EDTA added, 6 h): 98.3%
- Amount of component, percentage of amount at initial time ([2]; Example 11: solution of Example 10 freeze-dried, stored 7 days at 0° C., redissolved, pH 6.0, etimicin sulfate and disodium EDTA added, 8 h): 95.1%
- Amount of component, percentage of amount at initial time ([2]; Example 12: thawed solution from Example 10, pH 6.0, amikacin sulfate added, no EDTA, 0 h): 101.8%
- Amount of component, percentage of amount at initial time ([2]; Example 12: thawed solution from Example 10, pH 6.0, amikacin sulfate added, no EDTA, 1 h): 101.3%
- Amount of component, percentage of amount at initial time ([2]; Example 12: thawed solution from Example 10, pH 6.0, amikacin sulfate added, no EDTA, 2 h): 101.8%
- Amount of component, percentage of amount at initial time ([2]; Example 12: thawed solution from Example 10, pH 6.0, amikacin sulfate added, no EDTA, 4 h): 101.2%
- Amount of component, percentage of amount at initial time ([2]; Example 12: thawed solution from Example 10, pH 6.0, amikacin sulfate added, no EDTA, 6 h): 98.3%
- Amount of component, percentage of amount at initial time ([2]; Example 12: thawed solution from Example 10, pH 6.0, amikacin sulfate added, no EDTA, 8 h): 95.1%
Compound: CCN1CCN(C(=O)N[C@@H](C(=O)N[C@@H]2C(=O)N3[C@@H]2SC(C)(C)[C@@H]3C(=O)O)c2ccccc2)C(=O)C1=O [Piperacillin, piperacillin]

- Amount of component, percentage of amount at initial time ([2]; Example 8 solution (ceftriaxone sodium, tazobactam sodium, gentamicin sulfate, sodium citrate pH 6.75), room temperature, 0 h): 102.2%
- Amount of component, percentage of amount at initial time ([2]; Example 8 solution (ceftriaxone sodium, tazobactam sodium, gentamicin sulfate, sodium citrate pH 6.75), room temperature, 1 h): 97.53%
- Amount of component, percentage of amount at initial time ([2]; Example 8 solution (ceftriaxone sodium, tazobactam sodium, gentamicin sulfate, sodium citrate pH 6.75), room temperature, 2 h): 94.16%
- Amount of component, percentage of amount at initial time ([2]; Example 8 solution (ceftriaxone sodium, tazobactam sodium, gentamicin sulfate, sodium citrate pH 6.75), room temperature, 4 h): 94.58%
- Amount of component, percentage of amount at initial time ([2]; Example 8 solution (ceftriaxone sodium, tazobactam sodium, gentamicin sulfate, sodium citrate pH 6.75), room temperature, 6 h): 95.45%
- Amount of component, percentage of amount at initial time ([2]; Example 8 solution (ceftriaxone sodium, tazobactam sodium, gentamicin sulfate, sodium citrate pH 6.75), room temperature, 8 h): 94.44%
- Amount of component, percentage of amount at initial time ([2]; Example 14: cefoperazone sodium/tazobactam sodium solution pH 6.75, disodium EDTA and amikacin sulfate added, room temperature, 0 h): 98.5%
- Amount of component, percentage of amount at initial time ([2]; Example 14: cefoperazone sodium/tazobactam sodium solution pH 6.75, disodium EDTA and amikacin sulfate added, room temperature, 1 h): 98.7%
- Amount of component, percentage of amount at initial time ([2]; Example 14: cefoperazone sodium/tazobactam sodium solution pH 6.75, disodium EDTA and amikacin sulfate added, room temperature, 2 h): 98.2%
- Amount of component, percentage of amount at initial time ([2]; Example 14: cefoperazone sodium/tazobactam sodium solution pH 6.75, disodium EDTA and amikacin sulfate added, room temperature, 4 h): 95.6%
- Amount of component, percentage of amount at initial time ([2]; Example 14: cefoperazone sodium/tazobactam sodium solution pH 6.75, disodium EDTA and amikacin sulfate added, room temperature, 6 h): 94.0%
- Amount of component, percentage of amount at initial time ([2]; Example 14: cefoperazone sodium/tazobactam sodium solution pH 6.75, disodium EDTA and amikacin sulfate added, room temperature, 8 h): 96.1%
Compound: C[C@]1(Cn2ccnn2)[C@H](C(=O)O)N2C(=O)C[C@H]2S1(=O)=O [Tazobactam sodium, tazobactam sodium]

- Amount of component, percentage of amount at initial time [2, 9]: 102.1%
- Amount of component, percentage of amount at initial time [2, 10]: 104.6%
- Amount of component, percentage of amount at initial time [2, 11]: 96.51%
- Amount of component, percentage of amount at initial time [2, 12]: 100.4%
Compound: gentamicin

More lines, now with the values behind:

Compound: O=C(O)CN(CCN(CC(=O)O)CC(=O)O)CC(=O)O [EDTA, ethylenediamine tetraacetic acid]
- Effect on aggregate particle formation in the solution preparations [1]: significantly reduce aggregate particle formation; also recorded: effective in inhibiting formation of aggregate particles

Compound: CC1(C)S[C@@H]2[C@H](NC(=O)[C@H](NC(=O)N3CCN(S(C)(=O)=O)C3=O)c3ccccc3)C(=O)N2[C@H]1C(=O)O [Mezlocillin sodium, mezlocillin sodium]
- Amount of component, percentage of amount at initial time ([2]; Example 9: freeze-dried amikacin sulfate/disodium EDTA/citrate pH 6.5 powder stored 7 days at 0° C., redissolved, mezlocillin sodium added, 0 h): 94.68%
- Amount of component, percentage of amount at initial time ([2]; Example 9: freeze-dried amikacin sulfate/disodium EDTA/citrate pH 6.5 powder stored 7 days at 0° C., redissolved, mezlocillin sodium added, 1 h): 95.90%
- Amount of component, percentage of amount at initial time ([2]; Example 9: freeze-dried amikacin sulfate/disodium EDTA/citrate pH 6.5 powder stored 7 days at 0° C., redissolved, mezlocillin sodium added, 2 h): 71.70%
- Amount of component, percentage of amount at initial time ([2]; Example 9: freeze-dried amikacin sulfate/disodium EDTA/citrate pH 6.5 powder stored 7 days at 0° C., redissolved, mezlocillin sodium added, 4 h): 91.78%
- Amount of component, percentage of amount at initial time ([2]; Example 9: freeze-dried amikacin sulfate/disodium EDTA/citrate pH 6.5 powder stored 7 days at 0° C., redissolved, mezlocillin sodium added, 6 h): 93.08%
- Amount of component, percentage of amount at initial time ([2]; Example 9: freeze-dried amikacin sulfate/disodium EDTA/citrate pH 6.5 powder stored 7 days at 0° C., redissolved, mezlocillin sodium added, 8 h): 97.69%

Compound: CC1(C)[C@H](C(=O)O)N2C(=O)C[C@H]2S1(=O)=O [Sulbactam sodium, sulbactam sodium]
- Amount of component, percentage of amount at initial time ([2]; Example 4 solution (cefoperazone sodium, sulbactam sodium, gentamicin, sodium citrate pH 6.75, no EDTA), room temperature, 0 h): 101.4%
- Amount of component, percentage of amount at initial time ([2]; Example 4 solution (cefoperazone sodium, sulbactam sodium, gentamicin, sodium citrate pH 6.75, no EDTA), room temperature, 1 h): 101.4%
- Amount of component, percentage of amount at initial time ([2]; Example 4 solution (cefoperazone sodium, sulbactam sodium, gentamicin, sodium citrate pH 6.75, no EDTA), room temperature, 2 h): 101.5%
- Amount of component, percentage of amount at initial time ([2]; Example 4 solution (cefoperazone sodium, sulbactam sodium, gentamicin, sodium citrate pH 6.75, no EDTA), room temperature, 4 h): 109.7%
- Amount of component, percentage of amount at initial time ([2]; Example 4 solution (cefoperazone sodium, sulbactam sodium, gentamicin, sodium citrate pH 6.75, no EDTA), room temperature, 6 h): 103.2%
- Amount of component, percentage of amount at initial time [2, 9]: 101.4%
- Amount of component, percentage of amount at initial time [2, 10]: 101.4%
- Amount of component, percentage of amount at initial time [2, 11]: 101.5%
- Amount of component, percentage of amount at initial time [2, 12]: 109.7%
- Amount of component, percentage of amount at initial time ([2]; Example 5 solution (cefoperazone sodium, sulbactam sodium, gentamicin, disodium EDTA, sodium citrate pH 6.75), room temperature, 6 h): 103.2%
- Amount of component, percentage of amount at initial time ([2]; Example 6 solution (cefoperazone sodium, sulbactam sodium, etimicin sulfate, disodium EDTA, sodium citrate pH 6.5), room temperature, 0 h): 99.62%
- Amount of component, percentage of amount at initial time ([2]; Example 6 solution (cefoperazone sodium, sulbactam sodium, etimicin sulfate, disodium EDTA, sodium citrate pH 6.5), room temperature, 1 h): 100.4%
- Amount of component, percentage of amount at initial time ([2]; Example 6 solution (cefoperazone sodium, sulbactam sodium, etimicin sulfate, disodium EDTA, sodium citrate pH 6.5), room temperature, 2 h): 100.2%
- Amount of component, percentage of amount at initial time ([2]; Example 6 solution (cefoperazone sodium, sulbactam sodium, etimicin sulfate, disodium EDTA, sodium citrate pH 6.5), room temperature, 4 h): 100.2%
- Amount of component, percentage of amount at initial time ([2]; Example 7 solution (ceftriaxone sodium, sulbactam sodium, etimicin sulfate, disodium EDTA, sodium citrate pH 6.5), room temperature, 0 h): 96.84%
- Amount of component, percentage of amount at initial time ([2]; Example 7 solution (ceftriaxone sodium, sulbactam sodium, etimicin sulfate, disodium EDTA, sodium citrate pH 6.5), room temperature, 1 h): 94.43%
- Amount of component, percentage of amount at initial time ([2]; Example 7 solution (ceftriaxone sodium, sulbactam sodium, etimicin sulfate, disodium EDTA, sodium citrate pH 6.5), room temperature, 2 h): 93.35%
- Amount of component, percentage of amount at initial time ([2]; Example 7 solution (ceftriaxone sodium, sulbactam sodium, etimicin sulfate, disodium EDTA, sodium citrate pH 6.5), room temperature, 4 h): 93.23%
- Amount of component, percentage of amount at initial time ([2]; Example 7 solution (ceftriaxone sodium, sulbactam sodium, etimicin sulfate, disodium EDTA, sodium citrate pH 6.5), room temperature, 6 h): 92.13%
- Amount of component, percentage of amount at initial time ([2]; Example 7 solution (ceftriaxone sodium, sulbactam sodium, etimicin sulfate, disodium EDTA, sodium citrate pH 6.5), room temperature, 8 h): 93.38%
- Amount of component, percentage of amount at initial time [2, 3]: 94.1%
- Amount of component, percentage of amount at initial time [2, 4]: 97.4%
- Amount of component, percentage of amount at initial time [2, 5]: 96.4%
- Amount of component, percentage of amount at initial time [2, 6]: 97.7%
- Amount of component, percentage of amount at initial time [2, 7]: 96.9%
- Amount of component, percentage of amount at initial time [2, 8]: 97.1%
